Experimental data published in patent US12202805B2, “Process for preparing (5S)-{[2-(4-carboxyphenyl)ethyl] |2-(2-{|3-chloro-4'-(trifluoromethyl)biphenyl-4-yl]methoxy}phenyl)ethyl]aminol-5,6,7,8-tetrahydroquinoline-2-carboxylic acid and its crystalline forms for use as pharmaceutically active compound” (Bayer Aktiengesellschaft, priority 2021, dated 2025).

Assays:
[1] = tested on: thromboxane and hypoxia challenged rats, pigs, and dogs; experiment: Disease relevant animal models (thromboxane and hypoxia challenged), inhaled application, PAP; format: in vivo
[2] = tested on: Caco-2 cells; experiment: Caco-2 permeability test; format: in vitro ADME, human; conditions: 2 μM, 2 h at 37° C.
Protocol: E-3. Further Characterization E-3.1 Caco-2 Permeability Test
The in vitro permeation of a test compound across a Caco-2 cell monolayer is a well-established assay system to predict the permeability from the gastro-intestinal tract (1). The permeability of the compounds of the present invention in such Caco-2 cells was determined as described below:
Human caco-2 cells were seeded on 24-well insert plates and were allowed to grow for 14-16 days. For permeability studies, the test compounds were dissolved in DMSO and diluted to the final test concentration of 2 μM with transport buffer [Hanks' Buffered Salt Solution, Gibco/Invitrogen, further supplemented with glucose and HEPES]. For determination of the apical to basolateral permeability (PappA-B), the test compound solution was added to the apical side of the cell monolayer and transport buffer to the basolateral side of the monolayer; for determination of the basolateral to apical permeability (PappB-A), the test compound solution was added to the basolateral side of the cell monolayer and transport buffer to the apical side of the monolayer. Samples were taken from the donor compartment at the beginning of the experiment to confirm mass balance. After an incubation of 2 h at 37° C., samples were taken from both compartments. Samples were analyzed by LC-MS/MS, and the apparent permeability coefficients were calculated. Lucifer Yellow permeability was assayed for each cell monolayer to ensure cell monolayer integrity, and the permeability of Atenolol (low permeability marker) and Sulfasalazine (marker for active excretion) was determined for each batch as quality control.

[3] = Protein binding via Transil assay, minipig plasma; format: in vitro ADME; conditions: read-out: plasma fu (fraction unbound)
Protocol: Protein Binding of Comparative Example 11 and Comparative Example 1 was Analyzed Via Transil Assay, Described Below.
The distribution of a test substance between Transil® (phosphatidylcholine lipid bilayers immobilized on silica beads) and plasma is a characteristic feature of any pharmaceutical compound and is dependent on its extent of binding to plasma proteins. By comparing the distribution between Transil® and buffer with the distribution between Transil® and plasma of any species of interest, the unbound fraction in the plasma of the respective animal species can be calculated in vitro. The respective plasma and buffer concentrations were determined via a radioactivity analysis. A detailed description of the method and its validation was published by Schuhmacher et al. (2).

[4] = tested on: sGC; experiment: E-2.2 inhalative administration in healthy male subjects for 14 days: cGMP; format: in vivo, human; conditions: 1000 μg once daily inhaled
Protocol: E-2.2 Inhalative Administration of sGC Activators in Healthy Male Subjects for 14 Days to Evaluate Steady State Pharmacokinetics
Healthy white male subjects, aged 18 to 45 years and with a body mass index (BMI) above/equal 18.5 and below/equal 29.9 kg/m2 were treated in a clinical pharmacological phase I study for 14 days with inhaled once daily doses of 1000 μg (nominal dose) of Placebo or of dry powder formulation containing example 4. The subjects inhaled the drug powder from capsules (see under C, e.g. tables 17 and 20) inserted into a handheld inhalation device by one deep inhalative breath into the deep parts of the lung. The intended substantial reduction of increased blood pressure in the central pulmonary blood vessels cannot be evaluated in subjects without pathophysiological impairment of lung function. As surrogate for drug concentration in the lung, plasma concentrations over time have been analysed. […] Drug activity/target engagement in healthy men was controlled in the healthy subjects by analysing blood samples for cGMP.

## O=C(O)c1ccc(CCN(CCc2ccccc2OCc2ccc(-c3ccc(C(F)(F)F)cc3)cc2Cl)[C@H]2CCCc3nc(C(=O)O)ccc32)cc1 [comparative example 11, (5S)-5-{[2-(4-carboxyphenyl)ethyl][2-(2-{[3-chloro-4′-(trifluoromethyl)[biphenyl]-4-yl]methoxy}phenyl)ethyl]amino}-5,6,7,8-tetrahydroquinoline-2-carboxylic acid]
[1]
  effect on elevated PAP: selectively decreased elevated PAP
[2]
  efflux ratio: does not show an efflux ratio

## O=C(O)c1ccc(CCN(CCc2ccccc2OCc2ccc(-c3ccc(C(F)(F)F)cc3)cc2Cl)[C@H]2CCCc3nc(C(=O)O)ccc32)cc1 [example 2, (5S)—{[2-(4-Carboxyphenyl)ethyl][2-(2-{[3-chloro-4′-(trifluoromethyl)biphenyl-4-yl]methoxy}phenyl)-ethyl]amino}-5,6,7,8-tetrahydroquinoline-2-carboxylic acid as Monohydrate II]
[3]
  fraction unbound: 0.00348

## O=C(O)c1ccc(CCN(CCc2ccccc2OCc2ccc(-c3ccc(C(F)(F)F)cc3)cc2Cl)[C@H]2CCCc3nc(C(=O)O)ccc32)cc1 [example 4, (5S)—{[2-(4-Carboxyphenyl)ethyl][2-(2-{[3-chloro-4′-(trifluoromethyl)biphenyl-4-yl]methoxy}phenyl)-ethyl]amino}-5,6,7,8-tetrahydroquinoline-2-carboxylic acid as Monohydrate I]
[4]
  steady state of cGMP concentration reached after days of treatment: ≤ 11 days
